Data taken from patent publication US20220002314A1 (priority 2018, published 2022).
pKi: −log10 of the molar value. Read-outs that look alike come from different tables or passages of the source.

Tests used:
[1] = target: Human α2δ-1 subunit of Cav2.2 calcium channel (Homo sapiens, UniProt P54289); assay: biochemical; type: binding
Human μ-opioid receptor = Human μ-opioid receptor (Homo sapiens, UniProt P35372); assay: biochemical; type: binding
Human μ-opioid receptor, sequence (P35372 whole entry): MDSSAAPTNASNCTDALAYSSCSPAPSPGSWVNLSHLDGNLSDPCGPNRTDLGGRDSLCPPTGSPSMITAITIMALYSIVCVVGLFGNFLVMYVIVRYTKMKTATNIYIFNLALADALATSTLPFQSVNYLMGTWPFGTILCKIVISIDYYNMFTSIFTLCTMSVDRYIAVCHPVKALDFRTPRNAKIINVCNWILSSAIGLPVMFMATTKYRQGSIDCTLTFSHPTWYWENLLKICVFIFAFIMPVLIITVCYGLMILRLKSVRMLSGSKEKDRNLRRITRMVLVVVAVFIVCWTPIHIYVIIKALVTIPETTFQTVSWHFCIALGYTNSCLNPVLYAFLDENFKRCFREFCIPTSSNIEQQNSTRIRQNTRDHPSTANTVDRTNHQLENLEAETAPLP

Human α2δ-1 subunit of Cav2.2 calcium channel, sequence (P54289 25-1103): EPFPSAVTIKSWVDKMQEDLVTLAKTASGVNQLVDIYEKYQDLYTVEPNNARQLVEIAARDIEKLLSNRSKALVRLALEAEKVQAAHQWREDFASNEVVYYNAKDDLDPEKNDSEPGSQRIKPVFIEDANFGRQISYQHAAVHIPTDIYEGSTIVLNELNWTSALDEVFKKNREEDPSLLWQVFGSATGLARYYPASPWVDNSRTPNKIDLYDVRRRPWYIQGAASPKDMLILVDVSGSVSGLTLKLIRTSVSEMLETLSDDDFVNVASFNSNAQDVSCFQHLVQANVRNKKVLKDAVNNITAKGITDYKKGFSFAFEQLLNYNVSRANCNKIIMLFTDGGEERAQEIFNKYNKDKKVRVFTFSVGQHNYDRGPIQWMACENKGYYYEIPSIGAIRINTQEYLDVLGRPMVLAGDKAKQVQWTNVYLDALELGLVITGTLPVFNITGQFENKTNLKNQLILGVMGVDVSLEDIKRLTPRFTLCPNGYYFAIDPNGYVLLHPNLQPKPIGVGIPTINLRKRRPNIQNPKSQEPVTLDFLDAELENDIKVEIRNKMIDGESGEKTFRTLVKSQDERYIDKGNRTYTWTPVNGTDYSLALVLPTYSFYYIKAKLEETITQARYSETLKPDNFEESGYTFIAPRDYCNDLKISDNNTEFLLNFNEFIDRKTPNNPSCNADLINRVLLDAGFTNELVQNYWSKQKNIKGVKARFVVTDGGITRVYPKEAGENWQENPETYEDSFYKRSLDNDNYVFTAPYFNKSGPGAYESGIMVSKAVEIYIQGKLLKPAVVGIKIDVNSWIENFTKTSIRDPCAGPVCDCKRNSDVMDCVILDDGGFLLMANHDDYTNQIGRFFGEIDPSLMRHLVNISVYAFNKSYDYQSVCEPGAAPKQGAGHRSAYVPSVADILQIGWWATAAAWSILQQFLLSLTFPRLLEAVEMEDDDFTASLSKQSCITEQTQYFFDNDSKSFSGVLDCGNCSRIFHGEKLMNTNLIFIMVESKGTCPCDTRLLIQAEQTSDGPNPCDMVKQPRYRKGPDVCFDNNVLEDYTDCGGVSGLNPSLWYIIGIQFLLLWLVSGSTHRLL

pKi ([1]; read-out: α2δ-1 binding) | pKi (Human μ-opioid receptor; read-out: μ-binding) | Structure (SMILES) | pKi [1] | pKi (Human μ-opioid receptor)
– | – | CCC[C@H](c1nc2ccncc2c(=O)n1CC)N1CCN[C@H](C)C1 [Example 64, 3-Ethyl-2-((R)-1-((R)-3-methylpiperazin-1-yl)butyl)pyrido[4,3-d]pyrimidin-4(3H)-one] | > 6.30 | < 6.30
– | – | CCC[C@@H](c1nc2ccncc2c(=O)n1CC)N1CCN[C@H](C)C1 [Example 65, 3-ethyl-2-((S)-1-((R)-3-methylpiperazin-1-yl)butyl)pyrido[4,3-d]pyrimidin-4(3H)-one] | < 5.30 | < 6.30
– | – | CCC[C@H](c1nc2ccncc2c(=O)n1CC)N1CCN[C@@H](C)C1 [Example 66, 3-Ethyl-2-((R)-1-((S)-3-methylpiperazin-1-yl)butyl)pyrido[4,3-d]pyrimidin-4(3H)-one] | > 6.30 | < 6.30
– | – | CCC[C@@H](c1nc2ccncc2c(=O)n1CC)N1CCN[C@@H](C)C1 [Example 67, 3-ethyl-2-((S)-1-((S)-3-methylpiperazin-1-yl)butyl)pyrido[4,3-d]pyrimidin-4(3H)-one] | < 5.30 | < 6.30
– | – | CCC[C@H](c1nc2ncc(Br)cc2c(=O)n1CC)N1CCN[C@@H](C)C1 [Example 68, 6-Bromo-3-ethyl-2-((R)-1-((S)-3-methylpiperazin-1-yl)butyl)pyrido[2,3-d]pyrimidin-4(3H)-one] | > 6.30 | < 6.30
– | – | CCC[C@@H](c1nc2ncc(Br)cc2c(=O)n1CC)N1CCN[C@@H](C)C1 [Example 69, 6-bromo-3-ethyl-2-((S)-1-((S)-3-methylpiperazin-1-yl)butyl)pyrido[2,3-d]pyrimidin-4(3H)-one] | < 5.30 | < 6.30
– | – | CCC[C@H](c1nc2cccnc2c(=O)n1CC)N1CCN[C@@H](C)C1 [Example 70, 3-Ethyl-2-((R)-1-((S)-3-methylpiperazin-1-yl)butyl)pyrido[3,2-d]pyrimidin-4(3H)-one] | > 6.30 | < 6.30
– | – | CCC[C@@H](c1nc2cccnc2c(=O)n1CC)N1CCN[C@@H](C)C1 [Example 71, 3-ethyl-2-((S)-1-((S)-3-methylpiperazin-1-yl)butyl)pyrido[3,2-d]pyrimidin-4(3H)-one] | < 5.30 | < 6.30
– | – | CCC[C@H](c1nc2ncc(Br)cc2c(=O)n1CCC)N1CCN[C@@H](C)C1 [Example 72, 6-Bromo-2-((R)-1-((S)-3-methylpiperazin-1-yl)butyl)-3-propylpyrido[2,3-d]pyrimidin-4(3H)-one] | > 6.30 | < 6.30
– | – | CCC[C@@H](c1nc2ncc(Br)cc2c(=O)n1CCC)N1CCN[C@@H](C)C1 [Example 73, 6-bromo-2-((S)-1-((S)-3-methylpiperazin-1-yl)butyl)-3-propylpyrido[2,3-d]pyrimidin-4(3H)-one] | < 5.30 | < 6.30
– | – | CCC[C@@H](c1nc2ncc(Br)cc2c(=O)n1CC1CC1)N1CCN[C@@H](C)C1 [Example 74, 6-Bromo-3-(cyclopropylmethyl)-2-((S)-1-((S)-3-methylpiperazin-1-yl)butyl)pyrido[2,3-d]pyrimidin-4(3H)-one] | < 5.30 | < 6.30
– | – | CCC[C@H](c1nc2ncc(Br)cc2c(=O)n1CC1CC1)N1CCN[C@@H](C)C1 [Example 75, 6-bromo-3-(cyclopropylmethyl)-2-((R)-1-((S)-3-methylpiperazin-1-yl)butyl)pyrido[2,3-d]pyrimidin-4(3H)-one] | > 6.30 | < 6.30
– | – | CCC[C@H](c1nc2ncc(Cl)cc2c(=O)n1CC)N1CCN[C@@H](C)C1 [Example 76, 6-Chloro-3-ethyl-2-((R)-1-((S)-3-methylpiperazin-1-yl)butyl)pyrido[2,3-d]pyrimidin-4(3H)-one] | > 6.30 | 6.30 to 7.00
– | – | CCC[C@@H](c1nc2nc(C(F)(F)F)ccc2c(=O)n1CC)N1CCN[C@@H](C)C1 [Example 77, 3-Ethyl-2-((S)-1-((S)-3-methylpiperazin-1-yl)butyl)-7-(trifluoromethyl)pyrido[2,3-d]pyrimidin-4(3H)-one] | < 5.30 | < 6.30
– | – | CCC[C@H](c1nc2nc(C(F)(F)F)ccc2c(=O)n1CC)N1CCN[C@@H](C)C1 [Example 78, 3-ethyl-2-((R)-1-((S)-3-methylpiperazin-1-yl)butyl)-7-(trifluoromethyl)pyrido[2,3-d]pyrimidin-4(3H)-one] | > 6.30 | < 6.30
– | – | CCCC(c1nc2ccc(Br)cc2c(=O)n1CC)N1CCNCC1 (centres unmarked) [Example 79, 6-Bromo-3-ethyl-2-(1-(piperazin-1-yl)butyl)quinazolin-4(3H)-one] | > 6.30 | < 6.30
5.30 to 6.30 | < 6.30 | CCCC(c1nc2ccccc2c(=O)n1C)N1CCNCC1 (centres unmarked) [Example 80, 3-methyl-2-(1-(piperazin-1-yl)butyl)quinazolin-4(3H)-one] | – | –
– | – | CCCC(c1nc2cc(Br)ccc2c(=O)n1CC)N1CCNCC1 (centres unmarked) [Example 81, 7-bromo-3-ethyl-2-(1-(piperazin-1-yl)butyl)quinazolin-4(3H)-one] | > 6.30 | < 6.30
– | – | CCCC(c1nc2ccc(Br)cc2c(=O)n1CCC)N1CCNCC1 (centres unmarked) [Example 82, 6-bromo-2-(1-(piperazin-1-yl)butyl)-3-propylquinazolin-4(3H)-one] | > 6.30 | 6.30 to 7.00
– | – | CCCC(c1nc2cc(F)c(Br)cc2c(=O)n1CC)N1CCNCC1 (centres unmarked) [Example 83, 6-bromo-3-ethyl-7-fluoro-2-(1-(piperazin-1-yl)butyl)quinazolin-4(3H)-one] | > 6.30 | 6.30 to 7.00
– | – | CCCC(c1nc2ccc(Br)c(C)c2c(=O)n1CC)N1CCNCC1 (centres unmarked) [Example 84, 6-bromo-3-ethyl-5-methyl-2-(1-(piperazin-1-yl)butyl)quinazolin-4(3H)-one] | 5.30 to 6.30 | 6.30 to 7.00
– | – | CCCC(c1nc2cc(C)c(Br)cc2c(=O)n1CC)N1CCNCC1 (centres unmarked) [Example 85, 6-bromo-3-ethyl-7-methyl-2-(1-(piperazin-1-yl)butyl)quinazolin-4(3H)-one] | > 6.30 | < 6.30
– | – | CCCC(c1nc2cc(F)c(F)cc2c(=O)n1CC)N1CCNCC1 (centres unmarked) [Example 86, 3-ethyl-6,7-difluoro-2-(1-(piperazin-1-yl)butyl)quinazolin-4(3H)-one] | > 6.30 | < 6.30
– | – | CCCC(c1nc2c(F)cc(Br)cc2c(=O)n1CC)N1CCNCC1 (centres unmarked) [Example 87, 6-bromo-3-ethyl-8-fluoro-2-(1-(piperazin-1-yl)butyl)quinazolin-4(3H)-one] | 5.30 to 6.30 | 6.30 to 7.00
– | – | CCCC(c1nc2ccc(Br)c(F)c2c(=O)n1CC)N1CCNCC1 (centres unmarked) [Example 88, 6-bromo-3-ethyl-5-fluoro-2-(1-(piperazin-1-yl)butyl)quinazolin-4(3H)-one] | > 6.30 | < 6.30
– | – | CCCC(c1nc2c(C)cc(Br)cc2c(=O)n1CC)N1CCNCC1 (centres unmarked) [Example 89, 6-bromo-3-ethyl-8-methyl-2-(1-(piperazin-1-yl)butyl)quinazolin-4(3H)-one] | < 5.30 | > 7.00
– | – | CCCC(c1nc2c(Cl)cc(F)cc2c(=O)n1CC)N1CCNCC1 (centres unmarked) [Example 90, 8-chloro-3-ethyl-6-fluoro-2-(1-(piperazin-1-yl)butyl)quinazolin-4(3H)-one] | < 5.30 | 6.30 to 7.00
– | – | CCCC(c1nc2ccc(Br)c(Cl)c2c(=O)n1CC)N1CCNCC1 (centres unmarked) [Example 91, 6-bromo-5-chloro-3-ethyl-2-(1-(piperazin-1-yl)butyl)quinazolin-4(3H)-one] | > 6.30 | 6.30 to 7.00
